Test results as given in publication PMC5691054, “An unexpected protein interaction promotes drug resistance in leukemia” (Nature Communications, 2017).
Entries after “also recorded” stand apart in the source; their conditions may differ. Where no end group is shown, it is not given here.

What was measured:
[1] = target: T1, MPP1 and ABCC4 protein interaction (Homo sapiens, UniProt Q00013); assay: Competition of ABCC4 C-terminal peptides with MPP1–ABCC4 complex (GST-ABCC4-C100 pull-down, immunoblot); assay type: biochemical; details: in words; in vitro competition experiment
T1 construct: For full-length expression of MPP1, the pTriX vector containing an N-terminal His tag was used to create the His-S-MPP1 fusion protein; made in house; host or cells: E. coli
T1 sequence (Q00013 1-466): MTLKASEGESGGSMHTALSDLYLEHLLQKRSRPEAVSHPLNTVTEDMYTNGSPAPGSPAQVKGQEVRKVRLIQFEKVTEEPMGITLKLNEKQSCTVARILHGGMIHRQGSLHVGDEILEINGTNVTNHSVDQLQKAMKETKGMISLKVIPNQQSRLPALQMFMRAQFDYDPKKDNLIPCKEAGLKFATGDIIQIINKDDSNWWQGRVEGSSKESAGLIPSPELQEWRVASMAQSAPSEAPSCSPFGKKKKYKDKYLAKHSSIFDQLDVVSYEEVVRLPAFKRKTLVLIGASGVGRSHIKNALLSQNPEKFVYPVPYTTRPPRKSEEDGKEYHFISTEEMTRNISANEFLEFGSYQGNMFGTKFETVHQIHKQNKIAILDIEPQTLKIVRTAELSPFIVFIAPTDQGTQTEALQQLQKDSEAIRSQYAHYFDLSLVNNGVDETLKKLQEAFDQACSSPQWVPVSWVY
Protocol: C-terminal peptides of ABCC4 containing the carboxyl-terminal 15 amino acids ([…]-COOH, ABCC4-PDZ) or carboxyl-terminal 11 amino acids lacking the PDZ-binding motif ([…]-COOH, ABCC4ΔC) conjugated to the cell penetrating peptide TAT ([…]) were chemically synthesized by the Hartwell Center for Bionformatics and Biotechnology at SJCRH. ABCC4 peptides (1–4 μM) were mixed with purified GST-ABCC4-C100 (50 nM) (Supplementary Fig. 10 ) before addition of His-S-MPP1 (3.6 nM) and allowed to mix for 2 h at 24 °C. The GST-ABCC4-C100 was immobilized on glutathione beads, and washed 3 times. Protein complexes were eluted from the beads, separated by SDS-PAGE, and immunoblotted with rabbit anti-MPP1.

[2] = system: ABCC4 plasma membrane localization in HEK293 cells expressing MPP1 and GFP-ABCC4; assay: ABCC4 plasma membrane localization (confocal microscopy); assay type: cell-based, Human
Protocol: Peptides containing or lacking the ABCC4-PDZ motif were fused with the cell penetrating HIV-TAT peptide. These peptides were tested for their effect on ABCC4 plasma membrane localization. HEK293 cells were transfected with MPP1 and GFP-ABCC4 and the ER protein, calreticulin. The plasma membrane was counter-stained with wheat-germ-agglutinin (WGA) labeled with Alexa647 after treatment with either ABCC4-PDZ or ABCC4ΔC peptide.
HEK293 cells were seeded on chambered coverglass slides (LAB-TEK) 48 h before transfection with plasmid DNA (250 ng) encoding pAc-GFP-ABCC4 or ABCC4ΔC and pCal plasmid encoding the ER resident protein calreticulin conjugated to RFP (Origene). Transfection was performed using Lipofectamine 2000 as per the manufacturer’s instructions. Immediately prior to visualizing cells, cells were counterstained with the plasma membrane marker wheat-germ agglutinin (WGA) conjugated to Alexa-647 (Invitrogen). All confocal microscopy images were acquired on a 3i Marianas system configured with an Yokagowa CSU-X spinning disk confocal microscope utilizing a ×63 Zeiss objective, using the 488 (GFP), 561 (RFP), and 660 (far red) laser lines.

HEK293 cells [3] = assay: 6MP cytotoxicity / drug resistance in transfected HEK293 cells; assay type: cell-based, Human; details: for IC50: Homo sapiens, HEK293, 96 h, HEK293 expressing ABCC4, CellTiter Glo
Protocol: (§1) HEK293 cells transfected with ABCC4 or ABCC4ΔC in the presence or absence of MPP1, MO7e, and Meg01 cells were treated with 10 concentrations of 6MP, ranging from 1 to 1000 µM, for 96 h. Cell viability analysis was determined using CellTiter Glo (Promega). Where applicable, cell penetrating peptides conjugated to the PDZ-binding motif of ABCC4 (labeled either ABCC4-PDZ or ABCC4ΔC) were added to the cells at 20 μM. Media was changed daily and new ABCC4-PDZ/ABCC4ΔC peptide and 6MP was added. IC50 values were calculated using GraphPad Prism.

MO7e cells [4] = assay: 6MP cytotoxicity in MO7e cells and CRISPR knock-outs; assay type: cell-based, Human; details: cell permeable peptide (10 μM), in words
[5] = system: murine hematopoietic progenitor cells (HPC); assay: Hematopoietic progenitor cell serial replating in methylcellulose; details: HPC transduced with MPP1; cell penetrating peptide, fresh at each replating; n = 3
Protocol: In these experiments, littermates were used as controls. Bone marrow from 8- to 12-week-old female virgin C57/BL6 mice were harvested. Progenitors were enriched by incubating with lineage-PE antibodies (CD4, CD8, Mac1, Gr1, NK1.1, B220, and Ter119) and separated using AutoMACS Pro (Miltenyi). Hematopoetic progenitor cells were cultured in the presence of recombinant murine SCF (rmSCF), IL3 (rmIL3), and IL6 (rmIL6) (Peprotech; all 50 ng/ml) for 48 h before transduction on RetroNectin (Takara) coated plates. Retroviral supernatant containing media was produced by transient transfection of HEK293T cells with MSCV based retroviral plasmids encoding either MYCN-ires-YFP or MPP1-ires-CFP as previously described[35]. Forty-eight hours post transduction, cells were harvested, sorted for either YFP or CFP expression, and plated on methylcellulose containing IL3, IL6, SCF, and EPO (Stem Cell Technologies). Colonies were counted after 7 days growth at 37 °C, harvested, and replated.

[6] = system: primary AML cells from adult patients; assay: Annexin V/PI apoptosis in primary AML patient samples; assay type: cell-based, Human
Protocol: Primary AML cells from adult patients were treated with either vehicle, 50 or 100 µM cytarabine, 10 nM Antimycin A, or the combination of 50 or 100 µM cytarabine + 10 nM Antimycin A for 4 h. Post treatment, the cells were washed with fresh media (2×) and resuspended in the absence or presence of 10 nM Antimycin A and cultured for an additional 44 h (for a total treatment time of 48 h). The cells were then stained with Annexin V-fluorescein isothiocyanate (FITC)/propidium iodide (PI) apoptosis Kit (Beckman Coulter; Brea, CA, USA). The stage of apoptotic cells (Annexin V-positive, but early or late apoptosis) is identified by the proportion of AnnexinV+/PI− (early apoptosis) and Annexin V+/PI+ (late apoptosis) cells. This experiment was performed once in triplicates (presented as average ± SEM) due to the limited sample availability. Patient samples were selected based on the availability of an adequate number of cells to perform the assay.

MO7e cells [7] = assay: 6MP cytotoxicity in MO7e cells and CRISPR knock-outs; assay type: cell-based, Human; details: for IC50: Homo sapiens, Mo7e, 96 h, CellTiter Glo, triplicate; for decrease of 6MP resistance vs. parental cells: MO7e
Protocol: as §1
CRISPR-Cas9 plasmids containing gRNAs against ABCC4 ([…]) and MPP1 ([…]) were purchased from Sigma Aldrich. MO7e cells were transiently transfected with constructs containing the gRNA, Cas9 Nickase, and a flurophore. Forty-eight hours after transfection, cells were sorted for fluorescent positive cells and single cells were sorted into individual wells of a 96-well plate. Single-sorted cells were allowed to expand and deletion of the gene of interest was verified by immunoblotting.
The Meg01, MO7e, and ABCC4 KO MO7e cell lines were plated at 1500 cells per well in a 96-well plate. Cells were treated with 10 concentrations of Antimycin A (Santa Cruz) ranging from 0.01 to 1000 μM. Cell viability was determined using CellTiter Glo (Promega). Meg01, MO7e, and ABCC4 KO MO7e cells in the presence or absence of 10 nM Antimycin A were treated with 10 concentrations of 6MP, ranging from 1 to 1000 µM, for 96 h. Cell viability analysis was determined using CellTiter Glo. IC50 values were calculated using GraphPad Prism.

HEK293 cells [8] = assay: Etoposide cytotoxicity in transfected HEK293 cells; assay type: cell-based, Human; details: for IC50: Homo sapiens, triplicate
MO7e cells [9] = assay: Etoposide cytotoxicity in MO7e cells and CRISPR knock-outs; assay type: cell-based, Human; details: for IC50: Homo sapiens, Mo7e, triplicate
ABCC4 (MO7e lysates) = assay: Immunoprecipitation of ABCC4 from MO7e lysates by purified MPP1 fragments; assay type: binding, Human; details: purified fragment with MO7e lysates, n = 3, in words
From the text: For full-length expression of MPP1, the pTriX vector containing an N-terminal His tag was used to create the His-S-MPP1 fusion protein. Proteins were expressed in E. coli and purified using a nickel column (Supplementary Fig. 9). The production of cDNA constructs containing various defined segments of MPP1 has been described previously. The cDNA fragments containing either the N-terminal domain of MPP1 (amino acids 1–83), the PDZ domain (amino acids 83–160) or the C-terminal domain, containing both the SH3 and GUK domains (amino acids 161–466), were PCR amplified and subcloned into the pGex vector. All clones were fully sequenced to confirm their identity and reading frame. The GST-fusion proteins were purified using a glutathione column.

SNGQPSTLTIF-COOH (YGRKKRRQRRRSNGQPSTLTIF-OH) [ABCC4ΔC]
disruption of the MPP1 and ABCC4 protein interaction [1]: incapable of disrupting the MPP1 and ABCC4 protein interaction | ABCC4 remaining at the membrane ([2]; cell penetrating peptide (TAT fused; 10 μM in Supplementary Fig. 4), n = 20 fields of view): > 80% | effect on ABCC4 plasma membrane localization ([2]; in words, confocal microscopy): ineffective in relocalizing ABCC4 | effect of peptide on 6MP IC50 (HEK293 cells [3]; HEK293 co-expressing ABCC4 and MPP1, cell penetrating peptide (20 μM in methods; various amounts), 96 h, in words): without effect; also recorded: no effect on 6MP IC50 values | effect of peptide on 6MP sensitivity (MO7e cells [4]): had no effect | effect on MPP1-driven methylcellulose replating [5]: incapable of suppressing MPP1-stimulated replating

Nc1ccn([C@@H]2O[C@H](CO)[C@@H](O)[C@@H]2O)c(=O)n1 [cytarabine, cytosine arabinoside]
cytarabine response of primary AML cells ([6]; one primary AML patient sample, in culture and in vivo (peer review file)): non-responsive | cytarabine response of primary AML cells ([6]; the other patient sample (peer review file)): sensitive

Sc1ncnc2nc[nH]c12 [6MP, 6-mercaptopurine]
effect of MPP1 on survival of cells expressing ABCC4 lacking the PDZ motif (HEK293 cells [3]; HEK293, ABCC4ΔC, in words): no additional survival benefit | increase of 6MP IC50 by ABCC4 expression (HEK293 cells [3]; HEK293 ABCC4 vs. empty vector (Ctrl)): 2.6 fold | IC50 (HEK293 cells [3]; end of the shift with increasing MPP1 (P < 0.05), 96 h): 608 µM | IC50 (HEK293 cells [3]; start of the shift with increasing MPP1, 96 h): 184 µM | IC50 (MO7e cells [7]; MO7e + Antimycin A (10 nM), Fig. 6a): 13.6 µM | IC50 (MO7e cells [7]; MO7e ABCC4 KO + Antimycin A (10 nM), Fig. 6a): 22.2 µM | IC50 (MO7e cells [7]; MO7e ABCC4 KO, Fig. 4f): 27.6 µM | IC50 (MO7e cells [7]; MO7e DKO (ABCC4 and MPP1), Fig. 4f): 10.9 µM | IC50 (MO7e cells [7]; MO7e MPP1 KO, Fig. 4f): 27.7 µM | IC50 (MO7e cells [7]; MO7e parental, Fig. 4f): 135 µM | IC50 (MO7e cells [7]; without Antimycin A, Fig. 6a): 135 µM | decrease of 6MP resistance vs. parental cells (MO7e cells [7]; MPP1 deletion alone): over fourfold | decrease of 6MP resistance vs. parental cells (MO7e cells [7]; deletion of ABCC4): over fourfold

COc1cc([C@@H]2c3cc4c(cc3[C@@H](O[C@@H]3O[C@@H]5CO[C@@H](C)O[C@H]5[C@H](O)[C@H]3O)[C@H]3COC(=O)[C@H]23)OCO4)cc(OC)c1O [Etoposide, etoposide]
effect of ABCC4 and/or MPP1 on etoposide sensitivity (HEK293 cells [8]; HEK293, in words): not affected by MPP1; also recorded: not affected by the presence of either ABCC4 and/or MPP1 | IC50 (HEK293 cells [8]; HEK293, HEK293 ABCC4 + MPP1): 1.2 µM | IC50 (HEK293 cells [8]; HEK293, HEK293 ABCC4): 1.3 µM | IC50 (HEK293 cells [8]; HEK293, HEK293 ABCC4ΔC + MPP1): 1.2 µM | IC50 (HEK293 cells [8]; HEK293, HEK293 ABCC4ΔC): 1.5 µM | IC50 (HEK293 cells [8]; HEK293, HEK293 Ctrl (empty vector)): 1.4 µM | IC50 (MO7e cells [9]; MO7e ABCC4 KO): 23.9 µM | IC50 (MO7e cells [9]; MO7e DKO): 21.5 µM | IC50 (MO7e cells [9]; MO7e MPP1 KO): 20 µM | IC50 (MO7e cells [9]; MO7e parental): 27.2 µM | etoposide sensitivity of knock-out strains (MO7e cells [9]; MO7e ABCC4 KO, MPP1 KO, DKO, in words): did not affect etoposide sensitivity; also recorded: equally sensitive to etoposide

B1: MPP1 N terminus: MPP1 N terminus, up to the PDZ domain (amino acids 1–83) (protein, UniProt Q00013 1-83, looked up, fragment)
chain: MTLKASEGESGGSMHTALSDLYLEHLLQKRSRPEAVSHPLNTVTEDMYTNGSPAPGSPAQVKGQEVRKVRLIQFEKVTEEPMG
immunoprecipitation of ABCC4 (ABCC4 (MO7e lysates)): incapable of immunoprecipitating ABCC4

B2: SH3 and GUK domain: SH3 and GUK domain of MPP1 (amino acids 162–466) (protein, UniProt Q00013 162-466, looked up, fragment)
chain: FMRAQFDYDPKKDNLIPCKEAGLKFATGDIIQIINKDDSNWWQGRVEGSSKESAGLIPSPELQEWRVASMAQSAPSEAPSCSPFGKKKKYKDKYLAKHSSIFDQLDVVSYEEVVRLPAFKRKTLVLIGASGVGRSHIKNALLSQNPEKFVYPVPYTTRPPRKSEEDGKEYHFISTEEMTRNISANEFLEFGSYQGNMFGTKFETVHQIHKQNKIAILDIEPQTLKIVRTAELSPFIVFIAPTDQGTQTEALQQLQKDSEAIRSQYAHYFDLSLVNNGVDETLKKLQEAFDQACSSPQWVPVSWVY
immunoprecipitation of ABCC4 (ABCC4 (MO7e lysates)): incapable of immunoprecipitating ABCC4
